{
  "source": "patent US12111318B2",
  "about": "“Method for treating cancer based on expression levels of translationally controlled tumor protein (TCTP)” (KOREA UNIVERSITY RESEARCH AND BUSINESS FOUNDATION, priority 2020, dated 2024)",
  "key": {"CT26 No cells": {"tested_on": "CT26 No cells", "assay": "Cell viability assay (trypan blue exclusion), CT26 No cells", "assay_type": "cell-based", "settings": "Mus musculus, 24 hours, read-out: IC50 (concentration causing a 50% decrease in cell viability)", "method": "(§1) CT26 tumor cells were treated with indicated concentrations of cisplatin, dihydroartemisinin, rapamycin, sertraline, and thioridazine for 24 hours. Cell viability was measured by the trypan blue exclusion assay, and the concentrations causing a 50% decrease in cell viability (IC50 values) were determined."}, "CT26 TCTP cells": {"tested_on": "CT26 TCTP cells", "assay": "Cell viability assay (trypan blue exclusion), CT26 TCTP cells", "assay_type": "cell-based", "method": "as §1"}, "CT26 TCTP tumor cells": {"tested_on": "CT26 TCTP tumor cells", "method": "The tumor cells were harvested by trypsinization and washed once with DMEN (Thermo Fisher, USA) containing 0.1% fetal bovine (FBS), resuspended, and labeled in 0.1% DMEN with 10 μM CFSE for 10 minutes in a 37° C. incubator with 5% CO2. Then, the CFSE-labeled (MCF-7, HCT116, CaSki, MDA-MB-231) tumor cells were resuspended in 10 μM MART-1 peptide containing 1 ml of DMEM. In the case of A375 and 526Mel, the peptide-pulsing process was not needed. After peptide-pulsing for 1 hour, the cells were incubated for 4 hours with MART-1- or the NY-ESO1-specific CD8+ T cell lines at an E/T ratio of 1:1. […] All analysis was performed using a Becton Dickinson FACSverse (BD Bioscience, USA).\nTo further investigate the effect of each drug on sensitizing TCTP^high tumor cells to CTL-mediated killing, CT26 TCTP tumor cells were incubated with CTLs at various tumor cell-T cell ratios after treatment with a sublethal dose of each drug.\nTo quantify the synergistic effects of treatment of each drug with CTLs, a combination score was calculated based on changes in the percentage of apoptosis in drug-treated tumor cells with or without CTLs (see the following formula 1). […] Formula 1"}, "CT26 P3 tumor": {"tested_on": "CT26 P3 tumor", "assay": "ICB-refractory CT26 P3 tumor-bearing mice, anti-PD-L1 antibody alone or combined with DHA", "assay_type": "in vivo, mouse", "settings": "both the anti-PD-L1 blockade agent and DHA; all mice in the other groups died", "method": "Next, the present inventors expanded the preclinical therapeutic value of DHA in ICB therapy. To do this, ICB-refractory CT26 P3 tumor-bearing mice were administered anti-PD-L1 antibody alone or combined with DHA (FIG. 7G)."}},
  "note": "Where two headings read alike, the source gives them in different places.",
  "data": [
    {"smiles": "C[C@H]1[C@@H](O)O[C@@H]2O[C@@]3(C)CC[C@H]4[C@H](C)CC[C@@H]1[C@@]24OO3", "note": "[DHA, dihydroartemisinin]", "values": [
      {"measurement": "IC50", "setting": "CT26 No cells", "value": 408, "unit": "µM"},
      {"measurement": "Difference of IC50 between CT26 No and CT26 TCTP cells", "setting": "CT26 TCTP cells; CT26 No vs CT26 TCTP", "value": "about 20 fold"},
      {"measurement": "IC50", "setting": "CT26 TCTP cells; Mus musculus, CT26 TCTP cells, 24 hours, read-out: IC50 (concentration causing a 50% decrease in cell viability)", "value": 22.7, "unit": "µM"},
      {"measurement": "CTL-mediated cytotoxicity", "setting": "CT26 TCTP tumor cells; sublethal dose of each drug, then CTLs at various tumor cell-T cell ratios, compared to PBS or cisplatin", "value": "augmented CTL-mediated cytotoxicity in a synergistic fashion"},
      {"measurement": "Mice that survived", "setting": "CT26 P3 tumor", "value": 90, "unit": "%"}
    ]},
    {"smiles": "N.N.[Cl][Pt][Cl]", "note": "[cisplatin]", "values": [
      {"measurement": "Susceptibility of CT26 TCTP cells to the drug", "setting": "CT26 TCTP cells; CT26 TCTP vs CT26 No cells, 24 hours", "value": "refractory"}
    ]},
    {"smiles": "CO[C@H]1C[C@@H]2CC[C@@H](C)[C@@](O)(O2)C(=O)C(=O)N2CCCC[C@H]2C(=O)O[C@H]([C@H](C)C[C@@H]2CC[C@@H](O)[C@H](OC)C2)CC(=O)[C@H](C)/C=C(\\C)[C@@H](O)[C@@H](OC)C(=O)[C@H](C)C[C@H](C)/C=C/C=C/C=C/1C", "note": "[rapamycin]", "values": [
      {"measurement": "CTL-mediated cytotoxicity", "setting": "CT26 TCTP tumor cells", "value": "augmented CTL-mediated cytotoxicity in a synergistic fashion"}
    ]},
    {"smiles": "CN[C@H]1CC[C@@H](c2ccc(Cl)c(Cl)c2)c2ccccc21", "note": "[sertraline]", "values": [
      {"measurement": "CTL-mediated cytotoxicity", "setting": "CT26 TCTP tumor cells", "value": "augmented CTL-mediated cytotoxicity in a synergistic fashion"}
    ]},
    {"smiles": "CSc1ccc2c(c1)N(CCC1CCCCN1C)c1ccccc1S2", "note": "(stereo not drawn) [thioridazine]", "values": [
      {"measurement": "CTL-mediated cytotoxicity", "setting": "CT26 TCTP tumor cells", "value": "augmented CTL-mediated cytotoxicity in a synergistic fashion"}
    ]}
  ]
}
